Assay [1] addresses T1, CDK2 (Homo sapiens, UniProt P24941).
T1 construct: High-Throughput Measurement of Cellular Endogenous CDK2; endogenous in cells; host or cells: OVCAR3
As to the kind of experiment: CDK2 HTRF assay: cellular endogenous CDK2 level in OVCAR3 cells. It is filed as cell-based. The settings on record: 24 hours compound treatment; for DC50: read-out: DC50 (half maximal degradation concentration of CDK2). As to the method:
Effects of compounds on cellular CDK2 level can be monitored by a high-throughput HTRF assay or traditional Western Blot assay.
To determine half maximal degradation concentration (DC50) values of compounds, cellular CDK2 level was measured in 96-well format using HTRF total CDK2 cellular kit (Cat #64CDK2TPEG) from Cisbio.
On Day 1, OVCAR3 cells were seeded into 96-well tissue-culture treated plates at 20,000 cells/well in 200 μL and incubated overnight at 37° C. in CO2 atmosphere. On Day 2 cells were treated with compounds at concentration ranging from 0.3 to 10,000 nM using HP D300 digital dispenser. 24 hours after compound treatment, cell culture media was removed by flicking the plate and tapping the plate against clean paper towel. Immediately 30 μL 1× lysis buffer was supplemented from the kit and the plate was incubated at room temperature on shaker for 30 min. After homogenization by pipetting up and down, 8 μL cell lysate from 96-well cell culture plate was transferred to 384-well small volume white detection plate. 2 μL premixed detection solution was added and the plate was covered with sealer. To prepare the detection solution, d2 conjugated-CDK2 antibody and Eu-cryptate conjugated CDK2 antibody were diluted into detection buffer following manufacturer's instruction. Detection plates were incubated overnight at room temperature and read on ClarioStar (BMG Labtech) in TR-FRET mode (665 nM and 620 nM). The TR-FRET ratio (665 nM/620 nM) was plotted against the compound concentration and normalized to DMSO controls. Half maximal degradation concentration (DC50) values were calculated with a four-parameter logistic fit using GraphPad Prism (version 8; La Jolla, CA).
In the table below, A indicates a DC50 of less than 0.1 μM; B indicates a DC50 of greater than or equal to 0.1 μM but less than 0.5 μM; C indicates a DC50 of greater than or equal to 0.5 μM but less than 1 μM; and D indicates a DC50 of greater than or equal to 1 μM but less than 10 μM.
Background: In TR-FRET formats the signal depends on donor and acceptor labels being close together.

The target in assay [2] is T1, CDK2. In words: Inhibition of CDK2: phospho-Rb (S807/811) HTRF measurement in OVCAR3 cells. The settings on record: 24 h compound treatment, read-out: pRb (nM), IC50 in pRB(S807/811) assay. Format: cell-based. The protocol: Phosphorylation of RB protein at S807/811 were measured using HTRF phospho-RB cellular kits (Cat #64RBS807PEG) from Cisbio.
On Day 1, OVCAR3 (dependent on CDK2) cells were seeded into 96-well tissue-culture treated plates at 20,000 cells/well in 200 μL and incubated overnight at 37° C. in CO2 atmosphere. On Day 2, the cells were treated with test compounds at concentrations from 0.3 to 10,000 nM using HP D300 digital dispenser. Twenty-four hours after compound treatment, cell culture media was removed by flicking the plate and tapping the plate against clean paper towel. Immediately 30 μL 1× lysis buffer was supplemented from the kit and the plate was incubated at room temperature on shaker for 30 min. After homogenization by pipetting up and down, 8 μL cell lysate from 96-well cell culture plate was transferred to 384-well small volume white detection plate. 2 μL premixed detection solution was added and the plate was covered with sealer. To prepare the detection solution, d2 conjugated-phospho-RB antibody and Eu-cryptate conjugated phosphor-RB antibody were diluted into detection buffer following manufacturer's instruction. Detection plates were incubated for 4 h at room temperature and read on ClarioStar (BMG Labtech) in TR-FRET mode (665 nM and 620 nM). The TR-FRET ratio (665 nM/620 nM) was plotted against the compound concentration and normalized to DMSO controls. Half maximal inhibition concentration (IC50) values are calculated with a four-parameter logistic fit using GraphPad Prism (version 8; La Jolla, CA).
In the table below, A indicates a IC50 of less than 0.1 μM; B indicates a IC50 of greater than or equal to 0.1 μM but less than 0.5 μM; C indicates a IC50 of greater than or equal to 0.5 μM but less than 1 μM; and D indicates a […] of greater than or equal to 1 μM but less than 10 μM.

A value given as a limit tells only on which side of the number the result lay.

As to `Cn1nc(N2CCC(=O)NC2=O)c2ccc(N3CCN(CC4CCN(c5cccc(S(=O)(=O)N6CCC(Nc7ncc(C(F)(F)F)c(-c8cnn(CC(F)(F)F)c8)n7)CC6)c5)CC4)CC3)cc21` [Example 67, 1-(1-methyl-6-(4-((1-(3-((4-((4-(1-(2,2,2-trifluoroethyl)-1H-pyrazol-4-yl)-5-(trifluoromethyl)pyrimidin-2-yl)amino)-piperidin-1-yl)sulfonyl)phenyl)piperidin-4-yl)methyl)-piperazin-1-yl)-1H-indazol-3-yl)-dihydropyrimidine-2,4(1H,3H)-dione], the DC50 on CDK2 [1] was less than 100 nM. Also, the IC50 at CDK2 [2] is less than 100 nM.
For the compound `O=C1CCC(N2CC3CCC(C2)N3Cc2cccc(S(=O)(=O)N3CCC(Nc4ncc(C(F)(F)F)c(-c5cnn(CC(F)(F)F)c5)n4)CC3)c2)C(=O)N1` (centres unmarked) [Example 65, 3-(8-(3-((4-((4-(1-(2,2,2-trifluoro-ethyl)-1H-pyrazol-4-yl)-5-(trifluoro-methyl)pyrimidin-2-yl)amino)-piperidin-1-yl)sulfonyl)benzyl)-3,8-diazabicyclo-[3.2.1]octan-3-yl)-piperidine-2,6-dione], the DC50 on CDK2 [1] was less than 100 nM. In addition, the IC50 on CDK2 [2] is less than 100 nM.
As to `O=C1CCC(c2ccc(N3CCN(Cc4cccc(S(=O)(=O)N5CCC(Nc6ncc(C(F)(F)F)c(-c7cnn(CC(F)(F)F)c7)n6)[C@H](F)C5)c4)CC3)cc2)C(=O)N1` (mixture of isomers) [Example 19, Rac-3-(4-(4-(3-(((3R,4S)-3-fluoro-4-((4-(1-(2,2,2-trifluoroethyl)-1H-pyrazol-4-yl)-5-(trifluoromethyl)pyrimidin-2-yl)-amino)piperidin-1-yl)sulfonyl)benzyl)-piperazin-1-yl)-phenyl)piperidine-2,6-dione], at CDK2 [1], the DC50 is less than 100 nM. For the same compound, the IC50 on CDK2 [2] is less than 100 nM.
`Cn1c(S(=O)(=O)N2CCC(Nc3ncc(C(F)(F)F)c(-c4cnn(CC(F)(F)F)c4)n3)CC2)cnc1CN1CCN(c2ccc(C3CCC(=O)NC3=O)cc2F)CC1` (centres unmarked) [Example 20, 3-(3-fluoro-4-(4-((1-methyl-5-((4-((4-(1-(2,2,2-trifluoroethyl)-1H-pyrazol-4-yl)-5-(trifluoromethyl)pyrimidin-2-yl)amino)-piperidin-1-yl)sulfonyl)-1H-imidazol-2-yl)methyl)piperazin-1-yl)phenyl)-piperidine-2,6-dione]: on CDK2 [1], the DC50 is less than 100 nM. The IC50 on CDK2 [2] is less than 100 nM.
Regarding `O=C1CCC(NS(=O)(=O)N2CCC(Nc3ncc(C(F)(F)F)c(-c4cnn(CC(F)(F)F)c4)n3)CC2)C(=O)N1` (centres unmarked) [Example 83, N-(2,6-dioxopiperidin-3-yl)-4-((4-(1-(2,2,2-trifluoroethyl)-1H-pyrazol-4-yl)-5-(trifluoromethyl)pyrimidin-2-yl)-amino)piperidine-1-sulfonamide], the DC50 at CDK2 [1] was less than 100 nM. In addition, the IC50 at CDK2 [2] lay within 100 to 500 nM.
For `Cn1nc(N2CCC(=O)NC2=O)c2ccc(C3CCN(Cc4cc(S(=O)(=O)N5CCC(Nc6ncc(C(F)(F)F)c(-c7cnn(CC(F)(F)F)c7)n6)CC5)ccc4F)CC3)cc21` [Example 61, 1-(6-(1-(2-fluoro-5-((4-((4-(1-(2,2,2-trifluoroethyl)-1H-pyrazol-4-yl)-5-(trifluoromethyl)pyrimidin-2-yl)-amino)piperidin-1-yl)sulfonyl)benzyl)-piperidin-4-yl)-1-methyl-1H-indazol-3-yl)dihydropyrimidine-2,4(1H,3H)-dione] the same measures were less than 100 nM and less than 100 nM.
Take `Cn1c(S(=O)(=O)N2CCC(Nc3ncc(C(F)(F)F)c(-c4cnn(CC(F)(F)F)c4)n3)CC2)cnc1CN1CCN(c2ccc(N3CCC(=O)NC3=O)cc2)CC1` [Example 26, 1-(4-(4-((1-methyl-5-((4-((4-(1-(2,2,2-trifluoroethyl)-1H-pyrazol-4-yl)-5-(trifluoromethyl)pyrimidin-2-yl)amino)-piperidin-1-yl)sulfonyl)-1H-imidazol-2-yl)methyl)piperazin-1-yl)phenyl)dihydro-pyrimidine-2,4(1H,3H)-dione]: the DC50 on CDK2 [1] is less than 100 nM. Further, at CDK2 [2], the IC50 is 100 to 500 nM.
For `Cn1nc(N2CCC(=O)NC2=O)c2cc(F)c(N3CCN(Cc4cccc(S(=O)(=O)N5CC[C@H](Nc6ncc(C(F)(F)F)c(-c7cnn(CC(F)(F)F)c7)n6)[C@H](F)C5)c4)CC3)cc21` [Example 73, 1-(5-fluoro-6-(4-(3-(((3R,4S)-3-fluoro-4-((4-(1-(2,2,2-trifluoroethyl)-1H-pyrazol-4-yl)-5-(trifluoromethyl)pyrimidin-2-yl)amino)piperidin-1-yl)sulfonyl)-benzyl)piperazin-1-yl)-1-methyl-1H-indazol-3-yl)dihydropyrimidine-2,4(1H,3H)-dione], the DC50 at CDK2 [1] is less than 100 nM. In addition, the IC50 at CDK2 [2] was less than 100 nM.
Take `O=C1CCC(N2Cc3cc(N4CCC5(CCN(Cc6cccc(S(=O)(=O)N7CCC(Nc8ncc(C(F)(F)F)c(-c9cnn(CC(F)(F)F)c9)n8)CC7)c6)CC5)CC4)ccc3C2=O)C(=O)N1` (centres unmarked) [Example 12, 3-(1-oxo-5-(9-(3-((4-((4-(1-(2,2,2-trifluoroethyl)-1H-pyrazol-4-yl)-5-(trifluoromethyl)pyrimidin-2-yl)amino)-piperidin-1-yl)sulfonyl)-benzyl)-3,9-diazaspiro[5.5]undecan-3-yl)isoindolin-2-yl)piperidine-2,6-dione]: the DC50 on CDK2 [1] is less than 100 nM. Further, the IC50 at CDK2 [2] was less than 100 nM.
Consider `CC(C)(O)Cn1cc(-c2nc(NC3CCN(S(=O)(=O)c4cccc(CN5CCN(c6ccc(N7CCC(=O)NC7=O)cc6)CC5)c4)CC3)ncc2C(F)(F)F)cn1` [Example 24, 1-(4-(4-(3-((4-((4-(1-(2-hydroxy-2-methylpropyl)-1H-pyrazol-4-yl)-5-(trifluoromethyl)pyrimidin-2-yl)amino)-piperidin-1-yl)sulfonyl)benzyl)-piperazin-1-yl)phenyl)dihydro-pyrimidine-2,4(1H,3H)-dione], for which, on CDK2 [1], the DC50 was less than 100 nM. The IC50 at CDK2 [2] was less than 100 nM.
With `O=C1CCC(c2ccc(N3CC4CCC(C3)N4Cc3cccc(S(=O)(=O)N4CCC(Nc5ncc(C(F)(F)F)c(-c6cnn(CC(F)(F)F)c6)n5)CC4)c3)cc2)C(=O)N1` (centres unmarked) [Example 18, 3-(4-(8-(3-((4-((4-(1-(2,2,2-trifluoro-ethyl)-1H-pyrazol-4-yl)-5-(trifluoro-methyl)pyrimidin-2-yl)amino)-piperidin-1-yl)sulfonyl)benzyl)-3,8-diazabicyclo-[3.2.1]octan-3-yl)phenyl)-piperidine-2,6-dione], at CDK2 [1], the DC50 was less than 100 nM. Also, at CDK2 [2], the IC50 is less than 100 nM.
As for `Cn1cc(-c2nc(NC3CCN(S(=O)(=O)c4cccc(CN5CCN(c6cc7c(cc6F)C(=O)N(C6CCC(=O)NC6=O)C7=O)CC5)c4)CC3)ncc2C(F)(F)F)cn1` (centres unmarked) [Example 5, 2-(2,6-dioxopiperidin-3-yl)-5-fluoro-6-(4-(3-((4-((4-(1-methyl-1H-pyrazol-4-yl)-5-(trifluoromethyl)pyrimidin-2-yl)-amino)piperidin-1-yl)sulfonyl)-benzyl)-piperazin-1-yl)isoindoline-1,3-dione], the DC50 on CDK2 [1] is 100 to 500 nM. For the same compound, the IC50 on CDK2 [2] is less than 100 nM.
With `O=C1CCC(N2C(=O)c3cc(F)c(N4CCN(Cc5cccc(S(=O)(=O)N6CCC(Nc7ncc(Cl)c(-c8cnn(CC(F)(F)F)c8)n7)CC6)c5)CC4)cc3C2=O)C(=O)N1` (centres unmarked) [Example 9, 5-(4-(3-((4-((5-chloro-4-(1-(2,2,2-trifluoroethyl)-1H-pyrazol-4-yl)-pyrimidin-2-yl)amino)piperidin-1-yl)-sulfonyl)benzyl)piperazin-1-yl)-2-(2,6-dioxopiperidin-3-yl)-6-fluoro-isoindoline-1,3-dione], the “DC50 (half maximal degradation concentration of CDK2)” value on CDK2 [1] was “no curve”. For the same compound, at CDK2 [2], the IC50 fell in the range of 1000 to 10000 nM.
